Measured values published in patent publication US20080033039A1, “Combination of ceramide and oxaliplatin for inducing cell death and uses thereof in treating cancer” (priority 2006, published 2008).
Like-named read-outs stand apart in the source and are kept apart here.

Columns and labels:
L36 Tumors = assay: Short term (4/24 hrs) histopathology of L3.6 tumors: necrosis, mitotic index, apoptosis (H&E), caspase 3 staining; format: in vivo, mice
Procedure: (§1) In vivo experiments utilized SCID/Beige/Taconic male mice inoculated subcutaneously (S.C.) with 2×10^6 L3.6 pancreatic cells. Chemotherapy dose levels were based on standardized clinical dosing as modified from in vitro data. […] The data recovered included maximum tumor volume, tumor weight, body weight and survival. Histopathology studies were carried out in a separate group of 40 mice treated by the same drug dose levels and autopsied at 4 hours and 24 hours. Tumors were bi-valved and fixed in buffered formalin or frozen in hexane/acetone bath. A major focus was effects on tumor necrosis, apoptosis, mitotic index and caspase 3 index.

[1] = test system: L3.6 pancreatic tumor implants; conditions: for Mean Body Weight (g) (Time of Death or Sacrifice): at time of death or sacrifice; for anti-tumor response in combination therapy with C6-ceramide: SCID Mice bearing L3.6 pancreatic tumor implants
Procedure: as §1
SCID/Beige/Taconic male mice, 22-25 g, 6-8 weeks old purchased from Taconic Laboratory (Germantown, N.Y.) were ear tagged and randomized into eight groups of 5 mice each prior to inoculation s.c. with 2×10^6 L3.6 PA cells (46) in a volume 0.1 ml into the internal surface of the right thigh. Treatment was started according to the protocol <0.5 cc> (early 4 days or late 10 days). […] Mice were treated 3 times/week for 4-6 weeks with intraperitoneal injections of chemotherapy at dose levels to be described. Body weight of mice and diameters of tumors were measured every week. Tumor volumes (cm^3) were calculated by formula: V=Higher diameter X (smaller diameter)^2/2 (47-50). At the end of the 6 week observation period surviving mice were euthanized with CO2 inhalation. All the mice were autopsied and tissues were fixed in 10% buffered formalin, embedded in paraffin, and H&E sections of primary tumor, lungs, spleen, liver were examined microscopically. We also analyzed survival rate (%), mean tumor volume (MTV), mean survival time (MST), % mice with primary tumors and final rate of tumor development per survival time (FRTD). The last test was calculated from the MTV and MST: FRTD(cm^3/d)=MTV (cm^3/MST/day).
Our initial dose response studies were done using low dose ceramide 1 mg/kg and oxaliplatin dose levels of 11.0 mg/kg→3.5 mg/kg. […] We next studied the optimum ceramide dose level from 1 mg/kg to 10 mg/kg.

[2] = IP 3x/wk from day 4, paclitaxel 3.0, oxaliplatin 2.5, cisplatin 0.5 mg/kg, ceramide 10 mg/kg, volumes calculated in cm^3
[3] = same dosing, 6 week observation
[4] = Oxaliplatin at 2.5 mg/kg with low dose ceramide 1 mg/kg

Row | SMILES | % of Necroses (L36 Tumors; 4 hr after treatment) | Apoptosis Index (L36 Tumors; 4 hrs) | Apoptosis N/4000 Cells (L36 Tumors; 4 hrs) [N/4000 Cells] | Caspase 3 Index (L36 Tumors; 4 hrs) | Caspase N/4000 Cells (L36 Tumors; 4 hrs) [N/4000 Cells] | Difference in Caspase Expression Vs. Control (L36 Tumors; 4 hrs) | Mitotic Index (L36 Tumors; 4 hrs) [%] | Apoptosis Index (L36 Tumors; 24 hrs) | Apoptosis N/4000 Cells (L36 Tumors; 24 hrs) [N/4000 Cells] | Caspase 3 Index (L36 Tumors; 24 hrs) | % Survival @ 3 Weeks [1] [%] | % Surviving at 3 wks ([1]; table T3) [%] | % Survival @ 6 Weeks [1] [%] | % Surviving at 6 wks ([1]; table T3) [%] | Mean Final Tumor Volume [1, 2] | Mean Body Weight (g) (Time of Death or Sacrifice) [1] | Mean Survival Time [1, 3] [days] | Mean Final Tumor Volume ([1]; table T3) | Mean Survival Time ([1]; table T3) | anti-tumor response in combination therapy with C6-ceramide [1] | other results
1 | CCCCCCCCCCCCC/C=C/[C@@H](O)[C@H](CO)NC(=O)CCCCC [Ceramide, N-hexanoyl-D-sphingosine] | 30/NA % | 1.6 | 64 | 4.12 | 165 | 155% | 0.6 | 1/2 | 46 | 4.25 | 40 | 40 | 0 | 0 | 1.69 +/− 0.3 | 17.0 | 20.8 ± 1.1 | 1.69 +/− .03 | 20.8 +/− 1.1 | – | Caspase N/4000 Cells (L36 Tumors; 24 hrs): 157 N/4000 Cells; Difference in Caspase Expression Vs. Control (L36 Tumors; 24 hrs): 148%; Mitotic Index (L36 Tumors; 24 hrs): 0/32; synergy regarding anti-tumor effect ([1]; Ceramide 10 mg/kg with oxaliplatin 2.5 mg/kg): optimum synergy; enhancement of oxaliplatin by ceramide ([1]; Ceramide at 1 mg/kg with oxaliplatin 2.5 mg/kg): only modest effects; animal weight under combination therapy ([1]; mouse, in vivo): preservation of animal weight
2 | N.N.[Cl][Pt][Cl] [Cisplatin] | – | – | – | – | – | – | – | – | – | – | 60 | 60 | 0 | 0 | 1.83 +/− 0.1 | 16.6 | 25.6 ± 3.2 | 1.83 +/− 0.1 | 25.6 +/− 3.2 | significantly enhanced | –
3 | O=C1[O][Pt]2([NH][C@@H]3CCCC[C@H]3[NH]2)[O]C1=O [Oxaliplatin] | 30% | 1.35 | 54 | 3.5 | 148 | 132% | 0.92 | 1.28 | 51 | 3/1 | 100 | 100 | 0 | 0 | 1.76 +/− 0.2 | 15.6 | 27.4 ± 2.2 | 1.76 +/− 0.2 | 27.4 +/− 2.2 | significantly enhanced | % of Necroses (L36 Tumors; 24 hr after treatment): 10%; Caspase N/4000 Cells (L36 Tumors; 24 hrs): 123 N/4000 Cells; Difference in Caspase Expression Vs. Control (L36 Tumors; 24 hrs): 121%; Mitotic Index (L36 Tumors; 24 hrs): 0/57; activity in initial dose response studies [1, 4]: most active; toxicity in initial dose response studies [1, 4]: less toxic than other dose levels
4 | CC(=O)O[C@H]1C(=O)[C@@]2(C)[C@H]([C@H](OC(=O)c3ccccc3)[C@]3(O)C[C@H](OC(=O)[C@H](O)[C@@H](NC(=O)c4ccccc4)c4ccccc4)C(C)=C1C3(C)C)[C@]1(OC(C)=O)CO[C@@H]1C[C@@H]2O [Taxol, Paclitaxel] | 50/NA % | – | 66 | – | – | 95%/ ^ | – | – | 110 | – | 60 | 60 | 0 | 0 | 1.83 +/− 0.4 | 17.4 | 23.0 ± 2.4 | 1.83 +/− 0.4 | 23.0 +/− 2.4 | significantly enhanced | –
